Patent US5728709A, “Alkyl and aralkyl-substituted pyrrolocarbazole derivatives that stimulate platelet production” (Kyowa Hakko Kogyo Co., Ltd., priority 1995, dated 1998)
Read-outs that look alike come from different tables or passages of the source.

What was measured:
[1] = system: Megakaryocyte Colony Formation; assay: Megakaryocyte Colony Formation-Stimulating Activity; format: cell-based, Balb/c mouse; conditions: IL-3 present, 7 days culture, relative to control (IL-3 alone) = 100
Experimental: An eight-week-old Balb/c mouse was killed. Its femurs and cervical vertebrae were taken out and both ends thereof were cut off. Bone marrow cells were collected from the pieces cut off from the femurs and cervical vertebrae using a syringe containing IMDM (430-2200EA manufactured by Gibco Co.), and blown into a test tube. The test tube was allowed to stand for 5 minutes, and the supernatant was collected with a pipet. Each of the test compounds at various concentrations was separately added to a separate reaction mixture corltaining the bone marrow cells (50,000 cells), bovine serum albumin (2%: A4508, manufactured by Sigma Co.), transferrin (600 μg/ml: 652202, manufactured by Boehringer Mannheim Co.), IL-3 (100 U/ml) , cholesterol (16 μg/ml: 036-0641, manufactured by Wako Co.) and agar (0.6%: 0142-02, manufactured by Difco Laboratories);Then, 1 ml each of the mixtures was put into a 35-mm dishes (manufactured by Lux Co.); and cultured at 37° C., 5% CO2, and relative humidity of not less than 95%, for 7 days. A control was prepared by adding IL-3 alone to the bone marrow cells. After the completion of the culturing, the resultant agar was dried by using filter paper (1001-055, manufactured by Whatman Co.), fixed with 2.5% glutaraldehyde, followed by acetylcholinesterase staining (ACHE staining).
ACHE staining was carried out according to the following method:
ACHE staining: To each sample was added a solution containing 0.67 mg/ml acetylthiocholine iodide, 2.94 mg/ml sodium citrate, 7.5 mg/ml copper (II) sulfate, and 1.65 mg/ml potassium ferricyanide. Then, the mixture was allowed to stand at room temperature in the dark for 4 to 6 hours.
A group of 4 or more megakaryocytes which were stained reddish brown was regarded as one colony, and the number of colonies per dish was calculated using a microscope.
The results are shown in Table 5 as values relative to the control. (In the table, the relative values were calculated on the basis of the control defined as 100).

[2] = system: Platelet Production; assay: Platelet Production-Stimulating Activity in Mice; format: in vivo; conditions: Mus musculus, 360 h, male Balb/c mice, 15th day, control = 100, read-out: Ratio of increase (number of platelets, A/B×100); for response vs control in vivo at 50 mg/kg: 50 mg/kg i.p. once a day for 5 days
Experimental: A test compound was intraperitoneally (i. p.) or subcutaneously (s. c.) administered to 7-week-old male Balb/c mice once a day for consecutive 5 days (test group, 4 mice per group). A control group (4 mice per group) was administered only a solvent (5% Tween 80/water) alone. On the 15th day from the start of the administration, blood was collected from the fundus oculi vein of each mouse, and the number of platelets was counted with a micro counter (Model CC-180A, manufactured by Toa Iryo Denshi Co.). The rate (%) of increase in the number of platelets in the test group which had been administered test compounds over the control group was calculated according to the following formula to evaluate the effect of the test compound.
[Ratio of increase]=A/B×100
A: the number of platelets in the test group
B: the number of platelets in the control group

[3] = sc, free base, 10 mg/kg s.c. once a day for 5 days
[4] = sc, 10 mg/kg s.c. once a day for 5 days

O=C1c2c(-c3ccccc3[N+](=O)[O-])cc3[nH]c4ccccc4c3c2C(=O)N1Cc1ccccc1 [Compound 1]
Rel. Value (megakaryocyte colony formation, control defined as 100) ([1]; 1 nM): 147

Nc1ccccc1-c1cc2[nH]c3ccccc3c2c2c1C(=O)N(Cc1ccccc1)C2=O [Compound 5]
response vs control in vivo at 50 mg/kg ([2]; ip): 111%
Rel. Value (megakaryocyte colony formation, control defined as 100) ([1]; 1 nM): 117

CN1C(=O)c2c(-c3ccccc3[N+](=O)[O-])cc3[nH]c4ccccc4c3c2C1=O [Compound 10]
Rel. Value (megakaryocyte colony formation, control defined as 100) ([1]; 1 nM): 120

CN1C(=O)c2c(-c3ccccc3N)cc3[nH]c4ccccc4c3c2C1=O [Compound 11]
Rel. Value (megakaryocyte colony formation, control defined as 100) ([1]; 10 nM): 128

CN1C(=O)c2c(-c3ccccc3N)cc3c(c2C1=O)c1ccccc1n3Cc1ccc(N)cc1 [Compound 17]
Rel. Value (megakaryocyte colony formation, control defined as 100) ([1]; 1 nM): 123

CN(C)CCCn1c2ccccc2c2c3c(c(-c4ccccc4[N+](=O)[O-])cc21)C(=O)N(C)C3=O [Compound 24]
response vs control in vivo at 10 mg/kg ([2]; ip, 10 mg/kg i.p. once a day for 5 days): 125%
Rel. Value (megakaryocyte colony formation, control defined as 100) ([1]; 1 nM): 125

CN(C)CCCn1c2ccccc2c2c3c(c(-c4ccccc4N(C)C)cc21)C(=O)N(C)C3=O [Compound 26]
Rel. Value (megakaryocyte colony formation, control defined as 100) ([1]; 10 nM): 110

CN1C(=O)c2c(-c3ccccc3[N+](=O)[O-])cc3c(c2C1=O)c1ccccc1n3CCCCN1CCOCC1 [Compound 34]
Rel. Value (megakaryocyte colony formation, control defined as 100) ([1]; 0.1 nM): 114

CN(C)CCCn1c2ccccc2c2c3c(c(-c4ccccc4NCCN(C)C)cc21)C(=O)N(C)C3=O [Compound 36]
Rel. Value (megakaryocyte colony formation, control defined as 100) ([1]; 10 nM): 149

CN1C(=O)c2c(-c3ccccc3NCCO)cc3c(c2C1=O)c1ccccc1n3C [Compound 37]
Rel. Value (megakaryocyte colony formation, control defined as 100) ([1]; 1 nM): 130

CN(C)CCNc1ccccc1-c1cc2c(c3c1C(=O)N(C)C3=O)c1ccccc1n2C [Compound 40]
response vs control in vivo at 50 mg/kg ([2]; ip): 174%
Rel. Value (megakaryocyte colony formation, control defined as 100) ([1]; 1 nM): 138

CN(C)CCCNc1ccccc1-c1cc2c(c3c1C(=O)N(C)C3=O)c1ccccc1n2C [Compound 51]
Rel. Value (megakaryocyte colony formation, control defined as 100) ([1]; 10 nM): 141

CN(C)CC(=O)Nc1ccccc1-c1cc2c(c3c1C(=O)N(C)C3=O)c1ccccc1n2C [Compound 56]
Rel. Value (megakaryocyte colony formation, control defined as 100) ([1]; 1 nM): 116

CCN(CC)CCC(=O)Nc1ccccc1-c1cc2c(c3c1C(=O)N(C)C3=O)c1ccccc1n2C [Compound 60]
Rel. Value (megakaryocyte colony formation, control defined as 100) ([1]; 1 nM): 110

CN(C)CCOc1ccccc1-c1cc2c(c3c1C(=O)N(C)C3=O)c1ccccc1n2C [Compound 66]
response vs control in vivo at 50 mg/kg ([2]; ip): 206%
Rel. Value (megakaryocyte colony formation, control defined as 100) ([1]; 10 nM): 119

CN(C)CCNc1ccc([N+](=O)[O-])cc1-c1cc2c(c3c1C(=O)N(C)C3=O)c1ccccc1n2C [Compound 79]
response vs control in vivo at 25 mg/kg ([2]; ip, 25 mg/kg i.p. once a day for 5 days): 180%

CN(C)CCNc1ccc(Br)cc1-c1cc2c(c3c1C(=O)N(C)C3=O)c1ccccc1n2C [Compound 82]
Rel. Value (megakaryocyte colony formation, control defined as 100) ([1]; 10 nM): 119

CN(C)CCn1c(=O)c2c(c3c(c4c5ccccc5n(C)c42)C(=O)N(C)C3=O)c2ccccc21 [Compound 93]
response vs control in vivo at 50 mg/kg ([2]; ip): 176%
Rel. Value (megakaryocyte colony formation, control defined as 100) ([1]; 0.1 nM): 119

CC(CN(C)C)Oc1ccccc1-c1cc2c(c3c1C(=O)N(C)C3=O)c1ccccc1n2C (stereo not shown) [Compound 102]
response vs control in vivo at 10 mg/kg [2, 3]: 123%
Rel. Value (megakaryocyte colony formation, control defined as 100) ([1]; 1 nM): 142

CN(C)CCOc1ccc(Br)cc1-c1cc2c(c3c1C(=O)N(C)C3=O)c1ccccc1n2C [Compound 130]
response vs control in vivo at 10 mg/kg [2, 3]: 295%

CN(C)CCOc1ccc(OCc2ccccc2)cc1-c1cc2c(c3c1C(=O)N(C)C3=O)c1ccccc1n2C [Compound 147]
response vs control in vivo at 10 mg/kg [2, 4]: 154%

CN(C)CCOc1ccc(C=O)cc1-c1cc2c(c3c1C(=O)N(C)C3=O)c1cc(Br)ccc1n2C [Compound 160]
response vs control in vivo at 10 mg/kg [2, 4]: 117%
Rel. Value (megakaryocyte colony formation, control defined as 100) ([1]; 10 nM): 120

CN(C)CCOc1ccc(N(C)C)cc1-c1cc2c(c3c1C(=O)N(C)C3=O)c1ccccc1n2C [Compound 170]
response vs control in vivo at 10 mg/kg [2, 4]: 138%
Rel. Value (megakaryocyte colony formation, control defined as 100) ([1]; 1 nM): 125

CN(C)CCOc1ccccc1-c1cc2c(c3c1C(=O)N(C)C3=O)c1cc(C=O)ccc1n2C [Compound 177]
Rel. Value (megakaryocyte colony formation, control defined as 100) ([1]; 10 nM): 120

CC(=O)c1ccc2c(c1)c1c3c(c(-c4ccccc4OCCN(C)C)cc1n2C)C(=O)N(C)C3=O [Compound 180]
response vs control in vivo at 10 mg/kg [2, 4]: 189%

CN(C)CCOc1c(N)cccc1-c1cc2c(c3c1C(=O)N(C)C3=O)c1ccccc1n2C [Compound 203]
response vs control in vivo at 10 mg/kg [2, 4]: 146%
